Reference: ChEMBL document CHEMBL5233255, “Natural and nature-inspired stilbenoids as antiviral agents” (Eur J Med Chem, 2020)
Values after ≈ are worked out from the molar mass of the structure shown.

How the values were obtained:
Coxsackievirus B3 = test: Antiviral activity against CVB3 infected in African green monkey Vero cells assessed as reduction in cytopathic effect by SRB assay; type: functional, organism-based; conditions: Enterovirus B
Enterovirus A71 = test: Antiviral activity against human EV71 infected in African green monkey Vero cells assessed as reduction in cytopathic effect by SRB assay; type: functional, organism-based; conditions: Enterovirus A
Human alphaherpesvirus 1 [1] = test: Antiviral activity against HSV-1 clinical isolate infected in African green monkey Vero cells incubated for 3 days by plaque reduction assay; type: functional, organism-based; conditions: Human alphaherpesvirus 1, Vero, 72 h
[2] = Selectivity index, ratio of CC50 for cytotoxicity against African green monkey Vero cells to IC50 for antiviral activity against HSV-2 333 infected in African green monkey Vero cells; type: toxicity, cell-based; conditions: read-out: Ratio CC50/IC50
Human alphaherpesvirus 2 [3] = test: Antiviral activity against HSV-2 333 infected in African green monkey Vero cells incubated for 3 days by plaque reduction assay; type: functional, organism-based; conditions: Human alphaherpesvirus 2, 333, Vero, 72 h
Human alphaherpesvirus 1 [4] = test: Antiviral activity against HSV-1 15577 infected in African green monkey Vero cells incubated for 3 days by plaque reduction assay; type: functional, organism-based; conditions: Human alphaherpesvirus 1, 15577, Vero, 72 h
[5] = Selectivity index, ratio of CC50 for cytotoxicity against African green monkey Vero cells to IC50 for antiviral activity against HSV-1 15577 infected in African green monkey Vero cells; type: toxicity, cell-based; conditions: read-out: Ratio CC50/IC50
[6] = Selectivity index, ratio of CC50 for cytotoxicity against African green monkey Vero cells to IC50 for antiviral activity against HSV-1 clinical isolate infected in African green monkey Vero cells; type: toxicity, cell-based; conditions: read-out: Ratio CC50/IC50
Hepatitis C virus [7] = test: Antiviral activity against Hepatitis C virus genotype 1 Bart791 infected in human Huh7.5 cells assessed as reduction in viral replication treated for 72 hrs by qRT-PCR analysis; type: functional, organism-based, Hepacivirus hominis; conditions: genotype 1 Bart791, Huh7.5, 72 h
Hepatitis C virus [8] = test: Antiviral activity against Hepatitis C virus genotype 2 J6/JFH1 infected in human Huh7.5 cells assessed as reduction in viral replication treated for 72 hrs by qRT-PCR analysis; type: functional, organism-based, Hepacivirus hominis; conditions: genotype 2 J6/JFH1, Huh7.5, 72 h
[9] = Cytotoxicity against human Huh7.5 cells infected with Hepatitis C virus assessed as reduction in cell viability; type: toxicity, cell-based, Huh-7.5
Hepatitis C virus [10] = test: Antiviral activity against Hepatitis C virus genotype 2 Rluc-J6/JFH1 infected in human Huh7.5 cells assessed as reduction in viral replication treated for 72 hrs by qRT-PCR analysis; type: functional, organism-based, Hepacivirus hominis; conditions: genotype 2 Rluc-J6/JFH1, Huh7.5, 72 h
Hepatitis C virus [11] = test: Antiviral activity against Hepatitis C virus infected in human Huh7.5 cells assessed as reduction in viral replication; type: functional, organism-based, Hepacivirus hominis
[12] = system: Human immunodeficiency virus 1; test: Antiviral activity against HIV-1 GB8 infected in human JM1 cells; type: functional, organism-based; conditions: Human immunodeficiency virus 1, GB8, JM1
[13] = target: Neuraminidase (Influenza A virus (A/Puerto Rico/8/1934(H1N1)), UniProt P03468); test: Inhibition of influenza A virus A/PR/8/34 (H1N1) neuraminidase
Sequence of Neuraminidase (Influenza A virus (A/Puerto Rico/8/1934(H1N1)), UniProt P03468) (P03468 whole entry): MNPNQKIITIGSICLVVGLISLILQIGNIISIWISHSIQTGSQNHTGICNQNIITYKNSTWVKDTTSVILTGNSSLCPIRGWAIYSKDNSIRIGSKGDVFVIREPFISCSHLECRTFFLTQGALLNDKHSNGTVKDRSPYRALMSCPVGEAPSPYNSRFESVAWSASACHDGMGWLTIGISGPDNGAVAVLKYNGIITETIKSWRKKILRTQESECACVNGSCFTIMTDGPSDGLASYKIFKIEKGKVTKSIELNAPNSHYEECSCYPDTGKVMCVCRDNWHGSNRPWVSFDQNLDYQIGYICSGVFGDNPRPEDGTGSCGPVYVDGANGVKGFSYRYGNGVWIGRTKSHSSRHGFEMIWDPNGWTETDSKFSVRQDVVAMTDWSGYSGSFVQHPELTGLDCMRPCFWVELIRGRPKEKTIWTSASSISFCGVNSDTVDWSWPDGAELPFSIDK

[14] = Selectivity index, ratio of CC50 for cytotoxicity against MDCK cells to IC50 for influenza A virus A/Guangdong/243/72 ([…]) infected in MDCK cells; type: toxicity, cell-based; conditions: dog, read-out: Ratio CC50/IC50
Influenza A virus [15] = test: Antiviral activity against influenza A virus A/Guangdong/243/72 ([…]) infected in MDCK cells assessed as inhibition of virus-induced cytopathic effect; type: functional, organism-based
[16] = system: Human immunodeficiency virus 1; test: Antiviral activity against HIV-1 RF infected in human JM1 cells; type: functional, organism-based; conditions: Human immunodeficiency virus 1, RF
Influenza A virus [17] = test: Antiviral activity against influenza A virus A/NWS/33 (H1N1) infected in MDCK cells; type: functional, organism-based
Human alphaherpesvirus 2 [18] = test: Antiviral activity against HSV-2 UW 268 infected in MDCK cells assessed as inhibition of viral replication measured after 24 hrs by plaque reduction assay; type: functional, organism-based; conditions: Human alphaherpesvirus 2, UW 268, MDCK
Human alphaherpesvirus 1 [19] = test: Antiviral activity against HSV-1 KOS infected in MDCK cells assessed as inhibition of viral replication measured after 24 hrs by plaque reduction assay; type: functional, organism-based; conditions: Human alphaherpesvirus 1, KOS
Influenza A virus [20] = test: Antiviral activity against influenza A virus A/PR/8/34 (H1N1) infected in MDCK cells preincubated 2 hrs followed by viral infection and measured after 24 hrs by MTT assay; type: functional, organism-based
[21] = Inhibition of influenza B virus B/Jiangsu/10/2003 neuraminidase

## Oc1ccc(/C=C\c2cc(O)cc(O)c2)cc1 [CIS-RESVERATROL]
Coxsackievirus B3
  IC50: 12.2 µM
Enterovirus A71
  IC50: 37.6 µM

## CC1=C[C@H](c2c(O)cc(/C=C/c3ccc(O)cc3O)cc2O)[C@@H](C(=O)c2ccc(O)cc2O)[C@H](c2ccc(O)cc2O)C1
Human alphaherpesvirus 1 [1]
  IC50: 1.5 µg/mL (≈ 2.57 µM)
[2]
  selectivity ratio: 32
Human alphaherpesvirus 2 [3]
  IC50: 2.5 µg/mL (≈ 4.29 µM)
Human alphaherpesvirus 1 [4]
  IC50: 2.2 µg/mL (≈ 3.78 µM)
[5]
  selectivity ratio: 37
[6]
  selectivity ratio: 55

## Oc1ccc(C2Oc3ccc(/C=C/c4cc(O)cc5c4C(c4cc(O)cc(O)c4)C(c4ccc(O)cc4)O5)cc3C2c2cc(O)cc3c2C(c2cc(O)cc(O)c2)C(c2ccc(O)cc2)O3)cc1 (stereo not given)
Hepatitis C virus [7]
  EC50: 1 nM
Hepatitis C virus [8]
  EC50: 3 nM
[9]
  CC50: > 10 µM
Hepatitis C virus [10]
  EC50: 3 nM
Hepatitis C virus [11]
  EC50: 6 nM

## O=S(=O)(O)c1cc(N=C=S)ccc1CCc1ccc(N=C=S)cc1S(=O)(=O)O
[12]
  IC50: 40 µM

## COc1cc(/C=C/c2cc(O)cc(O)c2Cc2ccc(O)c(O)c2)ccc1O
[13]
  IC50: 13.1 µM
[14]
  selectivity ratio: 32.4
Influenza A virus [15]
  IC50: 6.17 µg/mL (≈ 16.2 µM)

## O=S(=O)(O)c1cc(N=C=S)ccc1/C=C/c1ccc(N=C=S)cc1S(=O)(=O)O
[16]
  IC50: 20 µM

## Oc1ccc([C@@H]2c3c(O)cc(O)cc3[C@@H]3c4c(cc(O)cc4[C@H]2[C@@H]2c4cc(O)cc5c4[C@@H](c4cc(O)cc(O)c4[C@H]2c2ccc(O)cc2)[C@H](c2ccc(O)cc2)O5)O[C@H]3c2ccc(O)cc2)cc1
Influenza A virus [17]
  IC50: 6.4 µM
Human alphaherpesvirus 2 [18]
  IC50: 6.4 µM
Human alphaherpesvirus 1 [19]
  IC50: 2800 nM

## Oc1ccc(/C=C/c2cc(O)c3c(c2)O[C@H](c2ccc(O)cc2O)[C@H]3c2cc(O)cc(O)c2)cc1
[14]
  selectivity ratio: 57.4
Influenza A virus [20]
  IC50: 0.67 µg/mL (≈ 1.42 µM)
Influenza A virus [15]
  IC50: 0.67 µg/mL (≈ 1.42 µM)
[21]
  IC50: 26.3 µg/mL (≈ 55.9 µM)
